In US9901648B2, “Stabilization of biomolecules using sugar polymers” (THE REGENTS OF THE UNIVERSITY OF CALIFORNIA, priority 2012, dated 2018):

Tests used:
[1] = test system: horseradish peroxidase (HRP); assay: Horseradish peroxidase stabilization at 70° C. (TMB activity); assay type: biochemical; details: 70° C. for 30 min; HRP 75 μg/mL; 7500 equivalent of trehalose
Method: The activity of horseradish peroxidase (HRP) after exposure to a temperature of 70° C. for 30 minutes was tested, and the results are provided in FIG. 28. The activity of HRP was tested through reaction with 3,3′,5,5′-tetramethylbenzidine (TMB), which produces a blue by-product. HRP samples were prepared without any additive, with 100 equivalent of P1-P4, or 7500 equivalent of trehalose, which is equal to the trehalose in the P1 sample. Heated samples were then tested for HRP reactivity and the percent original activities were calculated using same concentration of HRP without heating and additive (FIG. 28). After heating, HRP in solution without any additive, only 46% of the original activity was observed. […] The same concentration of trehalose maintained only 80% of HRP activity. All samples were repeated six times and their p value compared with no additive were <0.001.
Horseradish Peroxidase Stabilized by P1-P4 at 70° C. […] Stock solutions of 100 equiv of P1, P2, P3 and P4 and 7500 equiv of trehalose were also prepared in the same buffer. 2 μL aliquots of HRP solution were mixed with 2 μL aliquots of each polymer and trehalose solution to give final concentration of 75 μg/mL HRP or with only buffer. […] The assay was repeated 6 times following the know procedure with tetramethylbenzemidine (TMB).

hen egg white lysozyme [2] = target: T1, hen egg white lysozyme (Gallus gallus, UniProt P00698); assay: Thermo-stability (heat burden) assay, 90° C., EnzChek lysozyme activity; assay type: biochemical
T1 construct: reconstituting hen egg white lysozyme (0.1 mg/mL, DPBS, pH 7.4) as received without further purification; purchased Sigma-Aldrich; host or cells: hen egg white
Method: Lysozyme-glycopolymer conjugate (Lyz-6). To a 1.5 mL Lo-Bind® centrifuge tube was added thiopropionyl hen egg white lysozyme (LyzSH) (70 μL, 10 mg/mL, DPBS, pH 8.0) and 6 (16 mg, 0.71 μmol, 15 eq) and the entire reaction was diluted to a final volume of 500 μL (DPBS, pH 8.0) before storage at 4° C. for 3 hours. The resulting mixture was purified by FPLC (50 mM PB, 150 mM NaCl, pH 7.4), fractions were concentrated by centriprep ultrafiltration (MWCO 3 kDa, DPBS, pH 7.4) and stored at 4° C. Samples were diluted 5 fold before the EnzChek® lysozyme activity assay was employed to measure fraction activity. In a typical assay 50 μL of diluted sample was incubated with 50 μL of Micrococcus luteus labeled with FITC (1 mg/mL) at 37° C. for 1 hour. Subsequently, fluorescence of lysed cell membrane and thus lysozyme activity was measured as FITC fluorescence (abs 480 nm/em 530 nm) and quantified relative to known standards. […]
Wild-type lysozyme was prepared by reconstituting hen egg white lysozyme (0.1 mg/mL, DPBS, pH 7.4) as received and was stored without further purification at 4° C. in 20 μL aliquots. […] Activities of stressed samples were measured relative to identical aliquots that were not exposed to heat. […] Statistics were calculated utilizing the Students t test; % confidence as +/−=t*(standard deviation)/(number of trials)^(½) with p<1−% confidence/100.

β-galactosidase (β-Gal) = details: lyophilization cycles; β-Gal 0.1 mg/mL; 7500 equiv of trehalose
Method: The stabilization of β-galactosidase (β-Gal) was also tested after multiple lyophilization cycles. β-Gal is known to be easily denatured by lyophilization or freeze-thaw cycles (Pikal-Cleland and Capenter, 2001). Activity of β-Gal was measured by reacting with o-nitrophenyl-β-D-galactoside (ONPG), which releases o-nitrophenol, a yellow color product that absorbs light at 420 nm.
0.4 mg/mL P3-Gal solution was prepared in pH 7.0 10 mM sodium phosphate buffer. 50 μL aliquots of β-Gal solution were mixed with 150 μL of buffer or 150 μL of polymer (100 equiv) or trehalose (7500 equiv) in H2O to result 0.1 mg/mL protein solution. Aliquots of each sample were frozen by immersion in liquid nitrogen before lyophilization. The samples were lyophilized for 12 h for one cycle under 1 mbar. After each cycle 200 μL of H2O was added and the lyophilization repeated for 3 cycles and 4 cycles. The control was stored in 4° C. until the activity assay was performed. The assay includes 6 repeats by reacting with o-nitrophenyl-β-D-galactoside (ONPG).

[3] = target: Recombinant Human Insulin (Homo sapiens, UniProt P01308); assay: Insulin stabilization at 90° C. (native gel); details: 90° C. for 1 h; insulin 1 mg/mL; 750 equiv of trehalose
Method: Prepared P1, P2, P3, and the same concentration of trehalose as an additive were tested for stabilization of insulin against heating under 90° C. for 1 h. After heating all the samples were loaded on the native gel (FIG. 30). Insulin without any additive was denatured and the band was almost gone in native gel. […] The MALDI-TOF data provides that insulin, originally 5.8 kDa, denatures into mainly two fragments after heating (data not shown). This is due to the breakage of two disulfide bridges liking a and β chain of insulin.
Insulin was dissolved in pH 7.4 D-PBS buffer (1 mg/mL). The samples were prepared by adding 10 equiv of P1, P2, and P3 or 750 equiv of trehalose into the insulin solution. […] Other samples with polymers or trehalose were heated as 90° C. for 1 h and ran through the native gel.

glucose oxidase (GOX) = glucose oxidase (GOX) (Aspergillus niger, UniProt P13006); assay: Glucose oxidase stabilization at 50° C. (Amplex Red assay); assay type: biochemical; details: 50° C. for 30 min; GOX 0.1 mg/mL; 7500 equivalent of trehalose
Method: Trehalose glycopolymers P1 through P4 were also tested for glucose oxidase (GOX) stabilization against 50° C. heat for 30 min. The activity of GOX was evaluated using Amplex® Red Glucose/Glucose Oxidase Assay Kit (Invitrogen). GOX reacts with D-glucose to form H2O2, which can then react with the Amplex® in the presence of horseradish peroxidase (HRP) to generate resorufin and can be detected by fluorescence. GOX samples were prepared without any additive, with 100 equivalent of P1-P4, and 7500 equivalent of trehalose, which is equal to the number of repeating units in the P1. All samples were heated to 50° C. for 30 min and repeated six times. Heated samples were then tested for GOX reactivity and percent original activities were calculated using same concentration of GOX without heating and additive (FIG. 29).
2 μL aliquots of GOX solution were mixed with 2 μL aliquots of each polymer and trehalose solution or buffer only to give the final concentration of 0.1 mg/mL GOX. […] Activity was measured using Amplex® Red Glucose/Glucose Oxidase Assay kit following the product manual procedures.

hen egg white lysozyme [4] = target: T1, hen egg white lysozyme; assay: Lyophilization stability activity assay (10 lyophilization cycles, EnzChek lysozyme activity); assay type: biochemical
Method: Lysozyme-glycopolymer conjugate (Lyz-6). To a 1.5 mL Lo-Bind® centrifuge tube was added thiopropionyl hen egg white lysozyme (LyzSH) (70 μL, 10 mg/mL, DPBS, pH 8.0) and 6 (16 mg, 0.71 μmol, 15 eq) and the entire reaction was diluted to a final volume of 500 μL (DPBS, pH 8.0) before storage at 4° C. for 3 hours. The resulting mixture was purified by FPLC (50 mM PB, 150 mM NaCl, pH 7.4), fractions were concentrated by centriprep ultrafiltration (MWCO 3 kDa, DPBS, pH 7.4) and stored at 4° C. Samples were diluted 5 fold before the EnzChek® lysozyme activity assay was employed to measure fraction activity. In a typical assay 50 μL of diluted sample was incubated with 50 μL of Micrococcus luteus labeled with FITC (1 mg/mL) at 37° C. for 1 hour. Subsequently, fluorescence of lysed cell membrane and thus lysozyme activity was measured as FITC fluorescence (abs 480 nm/em 530 nm) and quantified relative to known standards.
Wild-type lysozyme was prepared by reconstituting hen egg white lysozyme (0.1 mg/mL, 1 eq, DPBS, pH 7.4) as received without further purification. Samples were further diluted to 0.021 mg/mL (1 kU/mL) in 20 μL aliquots prior to application of lyophilization or thermal insults.
Wild-type lysozyme samples mixed with glyco-polymer were prepared by adding trehalose polymer (Poly 5-8, 1 or 100 eq relative to lysozyme) to a solution of lysozyme (0.1 mg/mL, DPBS, pH 7.4) before storage at 4° C. Samples were further diluted to a lysozyme concentration of 0.021 mg/mL (1 kU/mL) in 20 μL aliquots prior to application of lyophilization or thermal insult.
Wild-type lysozyme samples mixed with trehalose were prepared by adding trehalose (1 or 100 eq relative to the number of trehalose monomer units in Poly 5-8) to a solution of lysozyme (0.1 mg/mL, DPBS, pH 7.4) before storage at 4° C. […]
Wild-type lysozyme was prepared by reconstituting hen egg white lysozyme (0.1 mg/mL, DPBS, pH 7.4) as received without further purification. […] Statistics were calculated utilizing the Students t test; % confidence as +/−=t*(standard deviation)/(number of trials)^(½) with p<1−% confidence/100.

T1 sequence (P00698 19-147): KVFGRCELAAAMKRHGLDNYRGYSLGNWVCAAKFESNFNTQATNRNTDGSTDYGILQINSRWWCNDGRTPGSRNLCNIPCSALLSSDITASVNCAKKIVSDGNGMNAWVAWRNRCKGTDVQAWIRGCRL
Chain of glucose oxidase (GOX) (P13006 17-605, species assumed): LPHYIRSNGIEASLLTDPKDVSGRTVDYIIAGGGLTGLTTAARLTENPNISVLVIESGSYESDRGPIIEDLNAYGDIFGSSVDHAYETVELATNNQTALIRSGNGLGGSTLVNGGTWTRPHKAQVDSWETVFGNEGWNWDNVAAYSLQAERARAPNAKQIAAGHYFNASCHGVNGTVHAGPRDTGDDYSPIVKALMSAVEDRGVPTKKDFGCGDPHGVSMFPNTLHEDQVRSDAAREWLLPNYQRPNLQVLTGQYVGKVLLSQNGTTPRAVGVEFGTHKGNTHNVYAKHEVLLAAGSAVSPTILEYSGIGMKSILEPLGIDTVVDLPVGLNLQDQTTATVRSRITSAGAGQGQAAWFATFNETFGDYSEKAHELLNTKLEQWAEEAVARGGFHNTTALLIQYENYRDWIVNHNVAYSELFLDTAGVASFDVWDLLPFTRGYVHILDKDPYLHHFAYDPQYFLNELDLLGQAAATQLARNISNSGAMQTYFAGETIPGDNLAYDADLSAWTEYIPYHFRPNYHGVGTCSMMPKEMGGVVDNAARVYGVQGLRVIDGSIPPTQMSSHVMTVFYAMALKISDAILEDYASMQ
Chain of Recombinant Human Insulin (P01308 25-54 limits assumed): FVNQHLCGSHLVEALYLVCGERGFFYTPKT
Chain of Recombinant Human Insulin (P01308 90-110 limits assumed): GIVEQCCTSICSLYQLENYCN

With `OC[C@H]1O[C@H](O[C@H]2O[C@H](CO)[C@@H](O)[C@H](O)[C@H]2O)[C@H](O)[C@@H](O)[C@@H]1O` [trehalose] the “percent original HRP activity” value [1] was 80%, the “activity retention with added trehalose” value (hen egg white lysozyme [2]; 90° C. for 1 hour, highest trehalose concentration (100 eq Poly8 monomer units)) was 31% and the “β-Gal original activity maintained” value (β-galactosidase (β-Gal)) was 45%. The “insulin band on native gel after heating” value [3] was “greatly reduced”, the “percent original GOX activity” value (glucose oxidase (GOX)) was 72% and the “retention of lysozyme activity with added trehalose” value (hen egg white lysozyme [4]; trehalose at equivalent concentrations to that in the 100-fold polymers) was 18-31%.

In the case of “wild-type lysozyme: hen egg white lysozyme reconstituted as received, unmodified”, the “remaining activity after heat burden” value (hen egg white lysozyme [2]; 90° C. for 3 hours, 0.1 mg/mL, conjugate or protein alone) is reported as “no activity remained”, the “activity relative to unexposed sample stored at 4° C.” value (hen egg white lysozyme [4]; 0.1 mg/mL, DPBS pH 7.4, conjugate or protein alone, no additive) is reported as about 20% and the “retention of original activity” value (hen egg white lysozyme [4]; lysozyme 0.021 mg/mL (1 kU/mL), conjugate or protein alone) is reported as 16%.
